Measurements from PubChem BioAssay (NCI).
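Cells were grown in 96-well plates and exposed to each compound for 48 hours at five concentrations; endpoints were interpolated linearly between bracketing concentrations, or set to the highest concentration if not reached. TGI is the concentration that stops growth completely.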

Key:
Test in all cases: growth of human tumour cells (NCI), 48 h
[1] = system: 786-0 renal
[2] = system: A498 renal
[3] = system: A549 NSCLC
[4] = system: ACHN renal
[5] = system: BT-549 breast
[6] = system: CAKI-1 renal
[7] = system: CCRF-CEM leukemia
[8] = system: COLO 205 colon
[9] = system: DU-145 prostate
[10] = system: EKVX NSCLC
[11] = system: HCT-116 colon
[12] = system: HCT-15 colon
[13] = system: HL-60(TB) leukemia
[14] = system: HOP-62 NSCLC
[15] = system: HOP-92 NSCLC
[16] = system: HS 578T breast
[17] = system: HT29 colon
[18] = system: IGROV1 ovarian
[19] = system: K-562 leukemia
[20] = system: KM12 colon
[21] = system: LOX IMVI melanoma
[22] = system: M14 melanoma
[23] = system: MALME-3M melanoma
[24] = system: MCF7 breast
[25] = system: MDA-MB-231 breast
[26] = system: MDA-MB-435
[27] = system: MDA-N
[28] = system: MOLT-4 leukemia
[29] = system: NCI-H226 lung
[30] = system: NCI-H23 lung
[31] = system: NCI-H522 lung
[32] = system: NCI/ADR-RES ovarian
[33] = system: OVCAR-3 ovarian
[34] = system: OVCAR-4 ovarian
[35] = system: OVCAR-5 ovarian
[36] = system: OVCAR-8 ovarian
[37] = system: PC-3 prostate
[38] = system: RPMI-8226 leukemia
[39] = system: SF-268 CNS
[40] = system: SF-295 CNS
[41] = system: SF-539 CNS
[42] = system: SK-MEL-2 melanoma
[43] = system: SK-MEL-28 melanoma
[44] = system: SK-MEL-5 melanoma
[45] = system: SK-OV-3 ovarian
[46] = system: SN12C renal
[47] = system: SNB-19 CNS
[48] = system: SNB-75 CNS
[49] = system: SW-620 colon
[50] = system: T-47D breast
[51] = system: TK-10 renal
[52] = system: U251 CNS
[53] = system: UACC-257 melanoma
[54] = system: UACC-62 melanoma
[55] = system: UO-31 renal

Measured: TGI

CCCCOC(=O)C(NC(C(=O)OCCCC)c1cc(C(C)(C)C)c(O)c(C(C)(C)C)c1)c1cc(C(C)(C)C)c(O)c(C(C)(C)C)c1 (stereo not given)
> 100 µM: [1] | [2] | [3] | [4] | [5] | [6] | [7] | [8] | [9] | [10] | [11] | [12] | [13] | [14] | [15] | [16] | [17] | [18] | [19] | [20] | [21] | [22] | [23] | [24] | [25] | [26] | [27] | [28] | [29] | [30] | [31] | [32] | [33] | [34] | [35] | [36] | [37] | [38] | [39] | [40] | [41] | [42] | [43] | [44] | [45] | [46] | [47] | [48] | [49] | [50] | [51] | [52] | [53] | [54] | [55]
